Experimental findings from patent US11401278B2, “Macrocyclic indole derivatives” (The Broad Institute, Inc., priority 2017, dated 2022) are described below.

Molecules are shown by their SMILES. “And” between values parts separate entries of the source, which are not always exact repeats. Equal entries are not always repeated. Structures can show the parent of a compound that is named as a salt. Where two headings read alike, the source gives them in different places.

Data set [1] relates to SUDHL10. Kind of data set: Induction of cytotoxicity (Assay 6), SUDHL10. As to conditions: read-out: Cytotox SUDHL10 [M] (median) IC50, CellTiter-Glo, 5 hours, SUDHL10.
Data set [2] deals with SUDHL10. Kind of data set: Induction of caspase-3/7 activity (Assay 4), SUDHL10. The class given is cell-based. The conditions noted are these: caspase-3/7 induction, median. The method, boiled down:
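Caspase-3/7 activity measured by Caspase-Glo 3/7 luminescence in DLBCL cells after 3 h compound treatment at 37 °C. Medium-only background subtracted. EC50 fitted with C0 fixed at 1 and top set to the reference compound's plateau/max induction.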

The test system of the next data set is AMO-1. The data set is described as follows: Antiproliferation assay (Assay 7), AMO-1. As to conditions: CellTiter-Glo, 72 hours, several values per example. Format: cell-based. Put shortly:
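Anti-proliferative effect is determined from CellTiter-Glo signal after a 72-hour incubation at 37° C, with a time-zero reference plate measured in parallel.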

Setting [3] is: read-out: Antiproli AMO-1 [M] IC50.

Consider `CCc1c2c(nn1C)CN(CC)S(=O)(=O)CCCn1c(C(=O)O)c(CCCOc3cccc4cc(F)ccc34)c3ccc(Cl)c-2c31` (racemic) [Example 56, (rac)-4-chloro-3,14-diethyl-7-{3-[(6-fluoro-1-naphthyl)oxy]propyl}-2-methyl-11,12,14,15-tetrahydro-2H,10H-pyrazolo[3′,4′:4,5][1,2,8]thiadiazacycloundecino[6,7,8-hi]indole-8-carboxylic acid 13,13-dioxide], for which the IC50 with SUDHL10 [1] (Homo sapiens, SU-DHL10, 5 h) was 2.5e-07 M. The compound also gave an EC50 in the data set with SUDHL10 [2] (Homo sapiens, SU-DHL10, 3 h) of 160 nM.
As to `CCc1c2c(nn1C)C(CCN1CCOCC1)N(C)S(=O)(=O)CCCn1c(C(=O)O)c(CCCOc3cccc4cc(F)ccc34)c3ccc(Cl)c-2c31` (racemic) [Example 73, (rac)-(4-chloro-3-ethyl-7-{3-[(6-fluoronaphthalen-1-yl)oxy]propyl}-2,14-dimethyl-15-[2-(morpholin-4-yl)ethyl]-13,13-dioxo-10,11,12,13,14,15-hexahydro-2H-13lambda^6-pyrazolo[3′,4′:4,5][1,2,8]thiadiazacycloundecino[6,7,8-hi]indole-8-carboxylic acid (Racemate 1)], the half-inhibitory concentration (IC50) in the data set on AMO-1 (setting [3]) is 2.6e-08 M and 2.5e-08 M. On SUDHL10 [2] (3 hours), this compound displayed an EC50 of 230 nM.
For the compound `Cc1c2c(nn1C)CN(C)S(=O)(=O)CCCn1c(C(=O)O)c(CCCOc3cccc4ccccc34)c3ccc(Cl)c-2c31` (single isomer, unassigned; enantiomer 1) [Example 5, 4-Chloro-2,3,14-trimethyl-7-{3-[(naphthalen-1-yl)oxy]propyl}-13,13-dioxo-10,11,12,13,14,15-hexahydro-2H-13λ^6-pyrazolo[3′,4′:4,5][1,2,8]thiadiazacycloundecino[6,7,8-hi]indole-8-carboxylic acid-N-ethylethanamine salt (Enantiomer 1)], the IC50 came out at 1.5e-06 M in the data set on AMO-1 (listed as 05, read-out: Antiproli AMO-1 [M] IC50) and 7.1e-07 M with SUDHL10 [1]. The compound also had an EC50 with SUDHL10 [2] (3 hours) of 590 nM.
On to `CCc1c2c(nn1C)CN(C1CC1)S(=O)(=O)CCCn1c(C(=O)O)c(CCCOc3cccc4cc(F)ccc34)c3ccc(Cl)c-2c31` (single isomer, unassigned; enantiomer 1) [Example 54, (−)-4-chloro-14-cyclopropyl-3-ethyl-7-{3-[(6-fluoronaphthalen-1-yl)oxy]propyl}-2-methyl-13,13-dioxo-10,11,12,13,14,15-hexahydro-2H-13lambda^6-pyrazolo[3′,4′:4,5][1,2,8]thiadiazacycloundecino[6,7,8-hi]indole-8-carboxylic acid N-ethylethanamine Salt (Enantiomer 1)], for which the IC50 with SUDHL10 [1] was found to be 6.5e-07 M. Moreover, the EC50 in the data set with SUDHL10 [2] (3 hours) is 520 nM.
Consider `CCc1c2c(nn1C)CN(CC)S(=O)(=O)CCCn1c(C(=O)O)c(CCCOc3cccc4cc(F)ccc34)c3ccc(Cl)c-2c31` (single isomer, unassigned; enantiomer 1) [Example 57, (+)-4-chloro-3,14-diethyl-7-{3-[(6-fluoronaphthalen-1-yl)oxy]propyl}-2-methyl-13,13-dioxo-10,11,12,13,14,15-hexahydro-2H-13lambda^6-pyrazolo[3′,4′:4,5][1,2,8]thiadiazacycloundecino[6,7,8-hi]indole-8-carboxylic acid N-ethylethanamine Salt (Enantiomer 1)], for which the IC50 in the data set on AMO-1 (setting [3]) is 1.6e-07 M and 1.3e-07 M; in the data set with SUDHL10 [1], 1.4e-07 M. Besides, the EC50 with SUDHL10 [2] (3 hours) turned out to be 110 nM.
On to `Cc1c2c(nn1C)C(CCN1CCOCC1)N(C)S(=O)(=O)CCCn1c(C(=O)O)c(CCCOc3cccc4cc(F)ccc34)c3ccc(Cl)c-2c31` (single isomer, unassigned; enantiomer 2) [Example 67, 4-chloro-7-{3-[(6-fluoronaphthalen-1-yl)oxy]propyl}-2,3,14-trimethyl-15-[2-(morpholin-4-yl)ethyl]-13,13-dioxo-10,11,12,13,14,15-hexahydro-2H-13lambda^6-pyrazolo[3′,4′:4,5][1,2,8]thiadiazacycloundecino[6,7,8-hi]indole-8-carboxylic acid (Enantiomer 2)], for which the IC50 in the data set on SUDHL10 [1] came out at 1.8e-08 M. The EC50 in the data set on SUDHL10 [2] (3 hours) came to 12 nM.
In the same order, the values of `CCNCC.CCc1c2c(nn1C)C(CCN1CCOCC1)N(C)S(=O)(=O)CCCn1c(C(=O)O)c(CCCOc3cccc4cc(F)ccc34)c3ccc(Cl)c-2c31` (single isomer, unassigned; enantiomer 2) [Example 76, 4-chloro-3-ethyl-7-{3-[(6-fluoronaphthalen-1-yl)oxy]propyl}-2,14-dimethyl-15-[2-(morpholin-4-yl)ethyl]-13,13-dioxo-10,11,12,13,14,15-hexahydro-2H-13lambda^6-pyrazolo[3′,4′:4,5][1,2,8]thiadiazacycloundecino[6,7,8-hi]indole-8-carboxylic acid-N-ethylethanamine Salt (Enantiomer 2)] are 8.2e-09 M and 5.5 nM.
